Broadly, the IC50 is the point on the concentration scale where inhibition reaches its midpoint.

For the assay, the target named is T1, human HSL (Homo sapiens, UniProt Q05469).
T1 construct: generate a full length human HSL ORF with a 3′-His6 tag; made in house; host or cells: High 5 insect cells (baculovirus, pFast-BAC)
T1 sequence (Q05469 1-1076): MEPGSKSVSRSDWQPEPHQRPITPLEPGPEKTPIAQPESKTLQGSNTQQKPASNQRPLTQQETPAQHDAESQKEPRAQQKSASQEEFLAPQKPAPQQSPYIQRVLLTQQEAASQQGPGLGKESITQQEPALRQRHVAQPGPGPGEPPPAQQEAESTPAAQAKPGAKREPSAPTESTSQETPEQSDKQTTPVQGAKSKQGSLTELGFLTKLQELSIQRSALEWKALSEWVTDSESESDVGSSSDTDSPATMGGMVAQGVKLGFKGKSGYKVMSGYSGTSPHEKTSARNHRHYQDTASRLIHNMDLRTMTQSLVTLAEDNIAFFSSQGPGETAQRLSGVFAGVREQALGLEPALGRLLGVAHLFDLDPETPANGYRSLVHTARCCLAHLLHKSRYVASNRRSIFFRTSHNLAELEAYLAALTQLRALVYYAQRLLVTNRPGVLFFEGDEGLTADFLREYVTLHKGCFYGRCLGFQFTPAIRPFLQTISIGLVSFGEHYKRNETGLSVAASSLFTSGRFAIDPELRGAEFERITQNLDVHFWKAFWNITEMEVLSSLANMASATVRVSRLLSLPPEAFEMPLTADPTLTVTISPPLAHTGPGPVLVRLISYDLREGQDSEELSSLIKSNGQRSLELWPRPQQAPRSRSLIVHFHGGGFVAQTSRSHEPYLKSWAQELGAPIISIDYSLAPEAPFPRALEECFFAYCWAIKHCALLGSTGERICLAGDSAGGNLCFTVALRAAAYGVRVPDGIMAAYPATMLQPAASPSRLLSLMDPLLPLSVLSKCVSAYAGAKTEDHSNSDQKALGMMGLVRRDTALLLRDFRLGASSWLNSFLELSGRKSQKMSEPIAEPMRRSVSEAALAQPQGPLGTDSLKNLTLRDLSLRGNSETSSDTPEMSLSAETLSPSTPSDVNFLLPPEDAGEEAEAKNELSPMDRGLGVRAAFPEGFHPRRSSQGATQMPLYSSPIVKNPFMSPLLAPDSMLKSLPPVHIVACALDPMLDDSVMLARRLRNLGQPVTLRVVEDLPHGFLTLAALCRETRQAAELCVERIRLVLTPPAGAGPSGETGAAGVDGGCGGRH
Put plainly: Human Hormone-Sensitive Lipase (HSL) enzyme inhibition assay (colorimetric, DMPT substrate). It is filed as biochemical. The conditions noted are these: human full length HSL-His6, 2,3-dimercapto-1-propanol tributyrate substrate, 37° C. 20 minutes, absorbance at 405 nm; read-out: HSL hum IC50. In a few lines: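 Full-length human HSL with C-terminal His6, expressed in baculovirus-infected High 5 cells and Ni-NTA purified, was added (15 ug/ml stock) to 1.5 mM DMPT in 100 mM MOPS pH 7.2, 0.2 mg/ml fatty acid-free BSA containing compound. After 20 min at 37 °C, DTNB with SDS/Triton X-100 was added; A405 read after 15 min at RT.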
`CC(C)c1ccc(N2CC[C@]3(CC[C@@](O)(c4ccccc4)CC3)C2=O)cc1` [Example 205, (5α,8α)-8-hydroxy-2-(4-isopropylphenyl)-8-phenyl-2-aza-spiro[4.5]decan-1-one]: the IC50 amounted to 10 nM.

For `CCCC[C@]1(O)CC[C@]2(CCN(c3ccc(OC(F)(F)F)cc3)C2=O)CC1` [Example 66, (5α,8α)-8-Butyl-8-hydroxy-2-(4-trifluoromethoxy-phenyl)-2-aza-spiro[4.5]decan-1-one], the IC50 was 30 nM.

On to `CC(C)[C@]1(O)CC[C@@]2(CCN(c3ccc([C@@H](O)C(F)(F)F)cc3)C2=O)CC1` [Example 136, (5α,8β)-8-Hydroxy-8-isopropyl-2-(4-((R)-2,2,2-trifluoro-1-hydroxy-ethyl)-phenyl)-2-aza-spiro[4.5]decan-1-one], for which the IC50 is 2760 nM.

On to `C[C@H](Oc1ccc(N2CC[C@]3(CC[C@@](O)(C4CC4)CC3)C2=O)cn1)C(F)(F)F` [Example 180, (5α,8α)-8-Cyclopropyl-8-hydroxy-2-[6-((S)-2,2,2-trifluoro-1-methyl-ethoxy)-pyridin-3-yl]-2-aza-spiro[4.5]decan-1-one], for which the IC50 came to 30 nM.

For `O=C1N(c2ccc([C@@H](O)C(F)(F)F)cc2)CC[C@]12CC[C@@](O)(COCC(F)(F)F)CC2` [Example 155, (5α,8α)-8-Hydroxy-8-(2,2,2-trifluoro-ethoxymethyl)-2-[4-((R)-2,2,2-trifluoro-1-hydroxy-ethyl)-phenyl]-2-aza-spiro[4.5]decan-1-one], the half-inhibitory concentration (IC50) amounted to 9 nM.

`CC(C)OC[C@]1(O)CC[C@]2(CCN(c3ccc(O[C@@H](C)C(F)(F)F)cc3)C2=O)CC1` [Example 308, (5α,8α)-8-Hydroxy-8-isopropoxymethyl-2-[4-((S)-2,2,2-trifluoro-1-methyl-ethoxy)-phenyl]-2-aza-spiro[4.5]decan-1-one]: the IC50 is 10 nM.

For the compound `CCCOC[C@]1(O)CC[C@]2(CCN(c3ccc(O[C@@H](C)C(F)(F)F)nc3)C2=O)CC1` [Example 268, (5α,8α)-8-Hydroxy-8-propoxymethyl-2-[6-((S)-2,2,2-trifluoro-1-methyl-ethoxy)-pyridin-3-yl]-2-aza-spiro[4.5]decan-1-one], the concentration for half-maximal inhibition (IC50) was found to be 20 nM.

With `CC(C)OC[C@]1(O)CC[C@@]2(CCN(c3ccc(O[C@H](C)C(F)(F)F)nc3)C2=O)CC1` [Example 315, (5α,8β)-8-Hydroxy-8-isopropoxymethyl-2-[6-((R)-2,2,2-trifluoro-1-methyl-ethoxy)-pyridin-3-yl]-2-aza-spiro[4.5]decan-1-one], the IC50 was found to be 180 nM.

Take `O=C1N(c2ccc(OCC(F)(F)F)cc2)CC[C@]12CC[C@@](O)(COCC1CCO1)CC2` (stereo partly drawn) [Example 259, (5α,8α)-8-Hydroxy-8-(oxetan-2-ylmethoxymethyl)-2-[4-(2,2,2-trifluoro-ethoxy)-phenyl]-2-aza-spiro[4.5]decan-1-one]: the IC50 was 80 nM.

With `O=C1N(c2ccc(CC(F)(F)F)cc2)CC[C@]12CC[C@@](O)(COCC(F)F)CC2` [Example 303, (5α,8α)-8-(2,2-Difluoro-ethoxymethyl)-8-hydroxy-2-[4-(2,2,2-trifluoro-ethyl)-phenyl]-2-aza-spiro[4.5]decan-1-one], the IC50 was 10 nM.

As to `COC[C@]1(O)CC[C@]2(CCN(c3ccc(C(C)C)cc3)C2=O)CC1` [Example 218, (5α,8α)-8-hydroxy-2-(4-isopropylphenyl)-8-(methoxymethyl)-2-aza-spiro[4.5]decan-1-one], the IC50 came out at 40 nM.

For `COC[C@]1(O)CC[C@]2(CCN(c3ccc(OC(F)(F)F)cc3)C2=O)CC1` [Example 114, (5α,8α)-8-Hydroxy-8-methoxymethyl-2-(4-trifluoromethoxy-phenyl)-2-aza-spiro[4.5]decan-1-one], the IC50 is 30 nM.

As for `CC(C)(C)c1ccc(N2CC[C@]3(CC[C@@H](Cc4ccn[nH]4)CC3)C2=O)cc1` [Example 364, (5α,8β)-2-(4-tert-Butyl-phenyl)-8-(2H-pyrazol-3-ylmethyl)-2-aza-spiro[4.5]decan-1-one], the half-maximal inhibitory concentration (IC50) turned out to be 10 nM.

Consider `COc1ccc(N2CC[C@]3(CC[C@H](O)CC3)C2=O)cc1` [Example 31, (5α,8α)-8-Hydroxy-2-(4-methoxy-phenyl)-2-aza-spiro[4.5]decan-1-one], for which the IC50 amounted to 23700 nM.

On to `CC(C)[C@]1(O)CC[C@@]2(CCN(c3ccc(OCC(F)(F)F)nc3)C2=O)CC1` [Example 109, (5α,8β)-8-Hydroxy-8-isopropyl-2-(6-(2,2,2-trifluoroethoxy)pyridin-3-yl)-2-aza-spiro[4.5]decan-1-one], for which the IC50 was found to be 2220 nM.

Regarding `CCOC[C@]1(O)CC[C@]2(CCN(c3ccc(OC(C)C)nc3)C2=O)CC1` [Example 330, (5α,8α)-8-Ethoxymethyl-8-hydroxy-2-(6-isopropoxy-pyridin-3-yl)-2-aza-spiro[4.5]decan-1-one], the 50% inhibitory concentration (IC50) came out at 40 nM.

As to `CCC[C@]1(O)CC[C@@]2(CCN(c3ccc(CC(F)(F)F)cc3)C2=O)CC1` [Example 82, (5α,8β)-8-Hydroxy-8-propyl-2-[4-(2,2,2-trifluoro-ethyl)-phenyl]-2-aza-spiro[4.5]decan-1-one], the IC50 worked out at 460 nM.

As to `CC(=O)[C@]1(O)CC[C@]2(CCN(c3ccc(OCC(F)(F)F)cc3)C2=O)CC1` [Example 338, (5α,8α)-8-Acetyl-8-hydroxy-2-[4-(2,2,2-trifluoro-ethoxy)-phenyl]-2-aza-spiro[4.5]decan-1-one], the IC50 amounted to 250 nM.

For the compound `O=c1ccccn1C[C@]1(O)CC[C@]2(CCN(c3ccc(OCC(F)(F)F)cc3)C2=O)CC1` [Example 369, (5α,8α)-8-Hydroxy-8-(2-oxo-2H-pyridin-1-ylmethyl)-2-[4-(2,2,2-trifluoro-ethoxy)-phenyl]-2-aza-spiro[4.5]decan-1-one], the 50% inhibitory concentration (IC50) was 20 nM.

`COCC#C[C@]1(O)CC[C@]2(CCN(c3ccc(CC(F)(F)F)cc3)C2=O)CC1` [Example 92, (5α,8α)-8-Hydroxy-8-(3-methoxy-prop-1-ynyl)-2-[4-(2,2,2-trifluoro-ethyl)-phenyl]-2-aza-spiro[4.5]decan-1-one]: the concentration for half-maximal inhibition (IC50) came out at 30 nM.

Regarding `COCCc1ccc(N2CC[C@]3(CC[C@@](O)(CC(C)C)CC3)C2=O)cc1` [Example 124, (5α,8α)-8-Hydroxy-8-isobutyl-2-[4-(2-methoxy-ethyl)-phenyl]-2-aza-spiro[4.5]decan-1-one], the half-inhibitory concentration (IC50) was found to be 20 nM.

Take `CCCCOC[C@]1(O)CC[C@]2(CCN(c3ccc(OCC(F)(F)F)cc3)C2=O)CC1` [Example 238, (5α,8α)-8-Butoxymethyl-8-hydroxy-2-[4-(2,2,2-trifluoro-ethoxy)-phenyl]-2-aza-spiro[4.5]decan-1-one]: the IC50 is 20 nM.

For the compound `CCOC[C@]1(O)CC[C@]2(CCN(c3ccc(O[C@H](C)C(F)(F)F)cc3)C2=O)CC1` [Example 253, (5α,8α)-8-Ethoxymethyl-8-hydroxy-2-[4-((R)-2,2,2-trifluoro-1-methyl-ethoxy)-phenyl]-2-aza-spiro[4.5]decan-1-one], the IC50 amounted to 20 nM.

`CC(C)[C@]1(O)CC[C@]2(CCN(c3ccc(C(O)C(F)F)cc3)C2=O)CC1` (stereo partly drawn) [Example 207, (5α,8α)-2-(4-(2,2-difluoro-1-hydroxyethyl)phenyl)-8-hydroxy-8-isopropyl-2-aza-spiro[4.5]decan-1-one]: the IC50 amounted to 90 nM.

On to `COCC#C[C@]1(O)CC[C@@]2(CCN(c3ccc(OC(F)(F)F)cc3)C2=O)CC1` [Example 72, (5α,8β)-8-Hydroxy-8-(3-methoxy-prop-1-ynyl)-2-(4-trifluoromethoxy-phenyl)-2-aza-spiro[4.5]decan-1-one], for which the IC50 was 710 nM.

Values taken from US8440710B2, “HSL inhibitors useful in the treatment of diabetes” (Hoffmann-La Roche Inc., priority 2009, dated 2013).
